Experimental data taken from patent publication US8518953B2, “Aminopyrimidines useful as inhibitors of protein kinases” (Vertex Pharmaceuticals Incorporated, priority 2007, dated 2013).

Assays:
[1] = biological target: T1, GSK-3β (AA 1-420) (Homo sapiens, UniProt P49841); assay: GSK-3 Inhibition Assay (standard coupled enzyme system); assay type: biochemical; conditions: 20 μM ATP, 300 μM peptide, 20 nM GSK-3β, 30° C.
T1 construct: GSK-3β (AA 1-420)
Experimental: Compounds of the present invention were screened for their ability to inhibit GSK-3β (AA 1-420) activity using a standard coupled enzyme system (Fox et al., Protein Sci. 1998, 7, 2249). Reactions were carried out in a solution containing 100 mM HEPES (pH 7.5), 10 mM MgCl2, 25 mM NaCl, 300 μM NADH, 1 mM DTT and 1.5% DMSO. Final substrate concentrations in the assay were 20 μM ATP (Sigma Chemicals, St Louis, Mo.) and 300 μM peptide (American Peptide, Sunnyvale, Calif.). Reactions were carried out at 30° C. and 20 nM GSK-3β. Final concentrations of the components of the coupled enzyme system were 2.5 mM phosphoenolpyruvate, 300 μM NADH, 30 μg/ml pyruvate kinase and 10 μg/ml lactate dehydrogenase.
An assay stock buffer solution was prepared containing all of the reagents listed above with the exception of ATP and the test compound of the present invention. The assay stock buffer solution (175 μl) was incubated in a 96 well plate with 5 μl of the test compound of the present invention at final concentrations spanning 0.002 μM to 30 μM at 30° C. for 10 min. […] Rates of reaction were obtained using a Molecular Devices Spectramax plate reader (Sunnyvale, Calif.) over 10 min at 30° C. The Ki values were determined from the rate data as a function of inhibitor concentration.

[2] = system: β-catenin; assay: β-catenin induction in brains of MCAO rats (Western blot); assay type: in vivo, rat; conditions: all doses, at the termination of the study
Experimental: Hypotonic Lysis Buffer consists of 10 mM HEPES, 10 mM KCL, 1.5 mM MgCl2, 1.0 mM EDTA, 1.0 mM DTT, 1× Roche protease inhibitor cocktail, and 1.0 mM AEBSF Calbiochem protease inhibitor cocktail (cat#539134). All concentrations are final and are diluted in water. First, hypotonic lysis buffer is added to the tissue at 5×'s weight. The tissue is then broken up on ice using the end of a syringe plunger. Next, the samples are freeze-thawed five times. The lysates are then transferred to ultracentrifuge tubes and spun at 100,000 g for 35 min at 4° C. The supernatants are then collected and an aliquot is taken to measure protein with the Pierce BCA protein assay kit (cat#23225), using BSA standard curve. The remaining protein lysates are diluted 1:1 with laemmli sample buffer containing β-mercaptoethanol. The protein concentration is then normalized. The samples are boiled for 5 min at 95° C. followed by a spin at 14,000 rpm in a mini-centrifuge for 1 min. The samples are then snap frozen with dry ice and stored at −20° C. The samples are first loaded on 10% Tris-glycine gel (10 uL/well). […] Induction of β-catenin is determined by comparison of the density of protein band in samples obtained from compound treated animals with that of vehicle treated animals. […] Lysates were analyzed by Western blot (see Example 3) and probed for GSK-3α/β pTYR levels. […]

T1 sequence (P49841 whole entry, species assumed, the tested form may be a part): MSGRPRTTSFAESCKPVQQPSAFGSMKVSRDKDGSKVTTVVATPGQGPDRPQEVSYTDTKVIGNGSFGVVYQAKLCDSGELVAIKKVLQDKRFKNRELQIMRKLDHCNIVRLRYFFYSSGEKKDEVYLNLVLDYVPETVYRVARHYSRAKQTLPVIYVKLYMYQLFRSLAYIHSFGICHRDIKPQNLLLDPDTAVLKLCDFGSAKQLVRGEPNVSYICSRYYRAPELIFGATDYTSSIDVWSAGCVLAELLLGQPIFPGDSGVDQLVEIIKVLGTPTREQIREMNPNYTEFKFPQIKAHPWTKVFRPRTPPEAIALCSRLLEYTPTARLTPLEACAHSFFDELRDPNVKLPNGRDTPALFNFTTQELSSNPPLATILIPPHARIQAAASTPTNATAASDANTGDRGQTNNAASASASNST

Ki [1]: < 5 nM | induction of β-catenin in the brain [2]: no induction of β-catenin
Structure (SMILES): Cc1nc(-c2ccccc2Cl)nc(Nc2n[nH]c3ncc(F)cc23)c1C [Compound I-1, N-(2-(2-chlorophenyl)-5,6-dimethylpyrimidin-4-yl)-5-fluoro-1H-pyrazolo[3,4-b]pyridin-3-amine]
